How the values were obtained:
[1] = biological target: T1, CYP121A1 (Mycobacterium tuberculosis, UniProt P9WPP7, S171C); assay type: binding
T1 construct: gene cyp121

[2] = biological target: T2, CYP121A1 (Mycobacterium tuberculosis, UniProt P9WPP7, I166A/S171C/I180A); assay type: binding
T2 construct: gene cyp121

c1c[nH]cn1 [imidazole]
19F-NMR titration (25-200 mM) with stepwise Soret shift [1]: changes in the NMR spectra correlated closely with a stepwise shift in the Soret band of the protein
19F-NMR titration with absorption (Soret) readout [2]: in the I166A_I180A mutant, we observed rapid saturation for both of the NMR and wavelength absorption outputs

Reference: publication PMC8571521, “^19F-NMR reveals substrate specificity of CYP121A1 in Mycobacterium tuberculosis” (The Journal of Biological Chemistry, 2021)
